Experimental data from patent publication US20220016092A1, “METHODS FOR TREATING SYMPTOMS AND DISORDERS ASSOCIATED WITH LYSOSOMAL STORAGE DISEASES” (GENZYME CORPORATION, priority 2019, published 2022).
Values joined by “and” are separate entries in the source; they are usually repeats but may differ in a detail not shown here. Equal values may be shown once.

Assays:
Format in all cases: in vivo, human
[1] = test system: GL-3 inclusions in skin cells; experiment: Clinical study in Fabry disease patients: skin GL-3 inclusion score by light microscopy
Method: (§1) A three-year open-label investigation of Compound 2 in young classic Fabry disease patients was conducted in order to evaluate the long-term safety, pharmacodynamics and exploratory efficacy of Compound 2 in adult male Fabry patients. Eleven subjects enrolled in the study, and seven subjects completed all aspects of the study. All subjects were males diagnosed with classic Fabry disease confirmed by genotype and residual alpha-galactosidase activity below detection levels (9 of the 11 had nonsense mutation in the GLA gene). All subjects had lyso-GL3 levels in plasma of at least 65 ng/mL and had no prior Fabry disease-specific treatment. The median age of subject was 24 years (range 19-37).
(§2) Each sample was scored independently by 3 pathologists for the presence of GL-3 inclusions on a four-point scale, and rated as 0 (no/trace), 1 (mild), 2 (moderate), or 3 (severe) according to Eng et al., N. Engl. J. Med. 345:9-16 (2001). A single score per patient per time point was derived by taking the score rated by the majority of the three pathologists. If a majority score could not be derived, then the median score was used (resulting in some fractional scores). Plasma samples were also analyzed for GL-3, lyso-GL-3, GL-1 and GM3 at baseline and weeks 12, 26, 52 and 156. Pain scores and abdominal symptoms were analyzed at baseline and weeks 12, 26, 52, 104 and 156 using the SF-36 scoring protocol.

[2] = test system: adult patients with Gaucher disease Type 3; experiment: Clinical study in GD-3 patients: resting-state fMRI connectivity; details: 15 mg/day + imiglucerase, individual Patients 1, 3, 4, 5, 6 (Patient 5 likely non-compliant)
Method: Neurological function-was further evaluated using functional magnetic resonance imaging (fMRI). Patient 2 was excluded because no fMRI data was collected at the Week 52 session. Resting-state fMRI screening sessions were performed at baseline screening, Week 26, and Week 52 visits. Connectivity estimates from four subjects (Patients 1, 3, 4 and 5) were entered into second-level analyses as a “compliant” group. Patient 5 was isolated due to likely non-compliance with study medication, as described above. Analyses were performed as described elsewhere (Smith et al. [2009]).
Spatial analysis of the connectivity between different anatomic regions of the brain is performed to define a correlation coefficient for regressed voxelwise mean intensity.

[3] = test system: adult male Fabry patients; experiment: Clinical study in Fabry disease patients: SF-36 bodily pain and abdominal pain; details: 15 mg/day oral
Method: as §1
as §2, with “Pain scores and abdominal symptoms were analyzed at baseline and weeks 12, 26, 52, 104 and 156 using the SF-36 scoring protocol.” left out
Patients were assessed using the Short Form-36 (SF-36) questionnaire on numerous visits from baseline to week 156. This is a 36-item questionnaire used to measure 8 various aspects of health (vitality, physical functioning, bodily pain, general health perceptions, physical role functioning, emotional role functioning, social role functioning and mental health). The score for each of the eight aspects ranges from 0 (maximum disability) to 100 (no disability), and thus, higher scores indicate good health condition. In addition, gastrointestinal symptoms, including abdominal pain, abdominal distention, and bowl movements, were assessed using a modified version of the inflammatory bowel severity scoring system. Particular questions asked as part of these assessments included: (1) whether the patient suffered abdominal pain within the last ten days, (2) what was the severity of abdominal pain suffered in the last ten days using a 0 (no pain) to 100 (very severe pain) scale, and (3) on how many days within the last ten days did the patient have abdominal pain.

[4] = Fabry patients, 15 mg/day oral, by week 156
[5] = Fabry, 15 mg/day, Endothelial Cells, Deep Vessels, 12 weeks
[6] = Fabry, 15 mg/day, Endothelial Cells, Deep Vessels, 26 weeks
[7] = Fabry, 15 mg/day, Endothelial Cells, Deep Vessels, 52 weeks
[8] = Fabry, 15 mg/day, Endothelial Cells, Deep Vessels, 156 weeks
[9] = Fabry, 15 mg/day, Endothelial Cells, Superficial Vessels, 12 weeks
[10] = Fabry, 15 mg/day, Endothelial Cells, Superficial Vessels, 26 weeks
[11] = Fabry, 15 mg/day, Endothelial Cells, Superficial Vessels, 52 weeks
[12] = Fabry, 15 mg/day, Endothelial Cells, Superficial Vessels, 156 weeks
[13] = Fabry, 15 mg/day, Perineurium Cells, 12 weeks
[14] = Fabry, 15 mg/day, Perineurium Cells, 26 weeks
[15] = Fabry, 15 mg/day, Perineurium Cells, 52 weeks
[16] = Fabry, 15 mg/day, Perineurium Cells, 156 weeks
[17] = Fabry, 15 mg/day, Smooth Muscle Cells, Deep Vessels, 12 weeks
[18] = Fabry, 15 mg/day, Smooth Muscle Cells, Deep Vessels, 26 weeks
[19] = Fabry, 15 mg/day, Smooth Muscle Cells, Deep Vessels, 52 weeks
[20] = Fabry, 15 mg/day, Smooth Muscle Cells, Deep Vessels, 156 weeks

In the case of `CC(C)(NC(=O)O[C@@H]1CN2CCC1CC2)c1csc(-c2ccc(F)cc2)n1` [Compound 2, (S)-quinuclidin-3-yl 2-(2-(4-fluorophenyl)thiazol-4-yl)propan-2-ylcarbamate], the “Patients with a 1-point reduction in skin GL-3 score” value [1, 4] is reported as “five”, the “Patients with complete clearance of GL-3 inclusions” value [1, 4] is reported as “two” and the “Patients with no change in skin GL-3 score” value [1, 4] is reported as “one”. The “Number of patients: skin GL-3 Score 1 unchanged” value [1, 5] was 1/9 (11%), the “Number of patients: skin GL-3 Score 2 dropped to 1” value [1, 5] was 2/9 (22%) and the “Number of patients: skin GL-3 Score 2 unchanged” value [1, 5] was 6/9 (67%). The “Number of patients: skin GL-3 Score 1 unchanged” value [1, 6] was 1/9 (11%), the “Number of patients: skin GL-3 Score 2 dropped to 1” value [1, 6] was 2/9 (22%) and the “Number of patients: skin GL-3 Score 2 unchanged” value [1, 6] was 6/9 (67%). The “Number of patients: skin GL-3 Score 2 dropped to 1” value [1, 7] was 3/6 (50%), the “Number of patients: skin GL-3 Score 2 dropped to 1.5” value (“Number of patients … to 1.5” for short) [1, 7] was 1/6 (17%) and the “Number of patients: skin GL-3 Score 2 unchanged” value [1, 7] was 2/6 (33%). For the same compound, the “Number of patients: skin GL-3 Score 1 unchanged” value [1, 8] was 1/6 (17%), the “Number of patients: skin GL-3 Score 2 dropped to 0.5” value [1, 8] was 1/6 (17%) and the “Number of patients: skin GL-3 Score 2 dropped to 1” value [1, 8] was 3/6 (50%). The “Number of patients: skin GL-3 Score 2 unchanged” value [1, 8] was 1/6 (17%), the “Number of patients: skin GL-3 Score 1 raised to 2” value [1, 9] was 1/9 (11%) and the “Number of patients: skin GL-3 Score 1 unchanged” value [1, 9] was 4/9 (44%). For the same compound, the “Number of patients: skin GL-3 Score 2 dropped to 1” value [1, 9] was 3/9 (33%), the “Number of patients: skin GL-3 Score 2 unchanged” value [1, 9] was 1/9 (11%) and the “Number of patients: skin GL-3 Score 1 raised to 2” value [1, 10] was 1/9 (11%). For the same compound, the “Number of patients: skin GL-3 Score 1 unchanged” value [1, 10] was 4/9 (44%), the “Number of patients: skin GL-3 Score 2 dropped to 1” value [1, 10] was 3/9 (33%) and the “Number of patients: skin GL-3 Score 2 unchanged” value [1, 10] was 1/9 (11%). For the same compound, the “Number of patients: skin GL-3 Score 1 unchanged” value [1, 11] was 3/6 (50%), the “Number of patients: skin GL-3 Score 2 dropped to 1” value [1, 11] was 2/6 (33%) and the “Number of patients: skin GL-3 Score 2 unchanged” value [1, 11] was 1/6 (17%). For the same compound, the “Number of patients: skin GL-3 Score 1 dropped to 0” value [1, 12] was 2/6 (33%), the “Number of patients: skin GL-3 Score 1 unchanged” value [1, 12] was 1/6 (17%) and the “Number of patients: skin GL-3 Score 2 dropped to 1” value [1, 12] was 3/6 (50%). The “Number of patients: skin GL-3 Score 1 raised to 2” value [1, 13] was 1/9 (11%), the “Number of patients: skin GL-3 Score 2 unchanged” value [1, 13] was 8/9 (89%) and the “Number of patients: skin GL-3 Score 1 raised to 2” value [1, 14] was 1/9 (11%). The “Number of patients: skin GL-3 Score 2 unchanged” value [1, 14] was 8/9 (89%), the “Number of patients: skin GL-3 Score 1 raised to 2” value [1, 15] was 1/6 (17%) and the “Number of patients: skin GL-3 Score 2 dropped to 1” value [1, 15] was 1/6 (17%). The “Number of patients … to 1.5” value [1, 15] was 1/6 (17%), the “Number of patients: skin GL-3 Score 2 unchanged” value [1, 15] was 3/6 (50%) and the “Number of patients: skin GL-3 Score 1 unchanged” value [1, 16] was 1/6 (17%). For the same compound, the “Number of patients … to 1.5” value [1, 16] was 1/6 (17%), the “Number of patients: skin GL-3 Score 2 unchanged” value [1, 16] was 4/6 (67%) and the “Number of patients: skin GL-3 Score 1.5 raised to 2” value [1, 17] was 2/9 (22%). The “Number of patients: skin GL-3 Score 2 unchanged” value [1, 17] was 7/9 (78%), the “Number of patients: skin GL-3 Score 1.5 unchanged” value [1, 18] was 2/9 (22%) and the “Number of patients: skin GL-3 Score 2 unchanged” value [1, 18] was 7/9 (78%). The “Number of patients: skin GL-3 Score 1.5 raised to 2” value [1, 19] was 1/5 (20%), the “Number of patients: skin GL-3 Score 2 unchanged” value [1, 19] was 4/5 (80%) and the “Number of patients: skin GL-3 Score 1.5 raised to 2” value [1, 20] was 1/6 (17%). For the same compound, the “Number of patients: skin GL-3 Score 2 dropped to 1” value [1, 20] was 1/6 (17%), the “Number of patients … to 1.5” value [1, 20] was 1/6 (17%) and the “Number of patients: skin GL-3 Score 2 unchanged” value [1, 20] was 3/6 (50%). For the same compound, the “Change in Correlation Coefficient (connectivity default mode network - executive function network)” value [2] was “+0.20 (3×) and −0.13 and +0.70”, the “Number of Patients Reporting Yes to Abdominal Pain in 10-Days Preceding Visit” value (“Number of Patients Reporting Yes” below) ([3]; 4 weeks) was 4/11 and the “Abdominal Pain Severity Score in 10-Days Preceding Visit (mean value, 0-100 scale)” value (“Abdominal Pain Severity Score” below) ([3]; 4 weeks (n = 4)) was 29.75. The “Number of Days within Preceding 10 Days with Abdominal Pain (mean value)” value (“Number of Days within Preceding 10 Days” for short) ([3]; 4 weeks (n = 4)) was 2.50, the “Number of Patients Reporting Yes” value ([3]; 12 weeks) was 2/10 and the “Abdominal Pain Severity Score” value ([3]; 12 weeks (n = 2)) was 40.00. For the same compound, the “Number of Days within Preceding 10 Days” value ([3]; 12 weeks (n = 2)) was 3.50, the “Number of Patients Reporting Yes” value ([3]; 26 weeks) was 3/9 and the “Abdominal Pain Severity Score” value ([3]; 26 weeks (n = 3)) was 31.33. For the same compound, the “Number of Days within Preceding 10 Days” value ([3]; 26 weeks (n = 3)) was 3.00, the “Number of Patients Reporting Yes” value ([3]; 52 weeks) was 2/7 and the “Abdominal Pain Severity Score” value ([3]; 52 weeks (n = 1)) was 21.00. The “Number of Days within Preceding 10 Days” value ([3]; 52 weeks (n = 3)) was 0.70, the “Number of Patients Reporting Yes” value ([3]; 104 weeks) was 2/7 and the “Abdominal Pain Severity Score” value ([3]; 104 weeks (n = 1)) was 21.00. The “Number of Patients Reporting Yes” value ([3]; 156 weeks) was 2/7, the “Abdominal Pain Severity Score” value ([3]; 156 weeks (n = 2)) was 15.00 and the “Number of Days within Preceding 10 Days” value ([3]; 156 weeks (n = 2)) was 0.20. The “Patients with decreased severity of abdominal pain, among those with gastrointestinal pain at baseline” value ([3]; week 26) was “four out of five”, the “Patients with improved overall bodily pain scores (SF-36)” value ([3]; week 26) was “Seven of nine” and the “Patients with reduced number of days with gastrointestinal pain” value ([3]; week 26) was “five of five”. The “Patients with decreased severity of abdominal pain, among those with gastrointestinal pain at baseline” value ([3]; week 156) was “four out of four”, the “Patients with improved overall bodily pain scores (SF-36)” value ([3]; week 156) was “three of six” and the “Patients with reduced number of days with gastrointestinal pain” value ([3]; week 156) was “three of four”.
